Source: publication PMC4777574, “Pharmacological Inhibition of Monoacylglycerol O-Acyltransferase 2 Improves Hyperlipidemia, Obesity, and Diabetes by Change in Intestinal Fat Utilization” (PLoS ONE, 2016)

Experiments:
[1] = molecular target: T1, Monoacylglycerol O-acyltransferase 2 (MGAT2) (Mus musculus, UniProt Q80W94); experiment: MGAT2 enzyme inhibition IC50 (assay details not given); anorectic effect lost in MGAT2 KO mice; format: biochemical
T1 construct: gene Mogat2

[2] = molecular target: T2, Monoacylglycerol O-acyltransferase 2 (MGAT2) (Homo sapiens, UniProt Q3SYC2); experiment: MGAT2 enzyme inhibition IC50 (assay details not given); format: biochemical
T2 construct: gene MOGAT2
T2 sequence (Q3SYC2 whole entry): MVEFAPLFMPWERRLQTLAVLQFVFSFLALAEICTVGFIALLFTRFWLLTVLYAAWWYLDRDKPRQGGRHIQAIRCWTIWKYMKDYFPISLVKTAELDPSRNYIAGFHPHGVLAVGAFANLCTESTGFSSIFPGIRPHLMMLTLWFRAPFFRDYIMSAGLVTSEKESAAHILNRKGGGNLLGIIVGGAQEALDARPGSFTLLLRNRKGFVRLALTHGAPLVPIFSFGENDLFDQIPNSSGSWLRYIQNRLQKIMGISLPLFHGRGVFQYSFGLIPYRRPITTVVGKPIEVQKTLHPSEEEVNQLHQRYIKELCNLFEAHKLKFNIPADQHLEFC

T1 sequence (Q80W94 whole entry): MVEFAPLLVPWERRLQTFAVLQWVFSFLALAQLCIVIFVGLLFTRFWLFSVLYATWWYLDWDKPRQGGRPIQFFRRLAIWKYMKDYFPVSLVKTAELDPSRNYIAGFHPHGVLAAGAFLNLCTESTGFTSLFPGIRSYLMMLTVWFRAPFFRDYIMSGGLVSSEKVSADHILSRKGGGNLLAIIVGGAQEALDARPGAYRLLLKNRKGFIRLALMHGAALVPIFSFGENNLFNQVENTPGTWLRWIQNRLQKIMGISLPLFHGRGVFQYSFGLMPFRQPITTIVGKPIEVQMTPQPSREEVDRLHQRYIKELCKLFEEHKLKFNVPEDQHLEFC

- IC50 [1]: 2.4 nM
- IC50 [2]: 7.8 nM
SMILES: Cn1nc(C(F)(F)F)cc1-c1cnc(N2CCc3cc(S(=O)(=O)Nc4c(F)cc(Cl)cc4F)cc(N4CCCC4=O)c32)nc1 [compA, compound A]
